IC50 and concentration data for 4 molecules are collected here from US11046709B2, “Fused 1,4-diazepines as BET bromodomain inhibitors” (THE REGENTS OF THE UNIVERSITY OF MICHIGAN, priority 2017, dated 2021).

The target in one series is BRD2 BD2 (Homo sapiens, UniProt P25440). Briefly: Competitive FP binding assay, BRD2 BD2. The note with it: Table 8, read-out: IC50 (nM) in FP assays BRD2 BD2. How it is done: (§1) Fluorescence Polarization (FP) competitive binding studies were carried out using a FAM labeled fluorescent probe, see, e.g., Cpd. No. 350 of US 2014/0256706, to determine binding affinities of representative Compounds of the Disclosure for recombinant BRD4 BD1 and BRD4 BD2 proteins. Equilibrium dissociation constants (Kd) values of the fluorescent probe to BRD4 BD1 and BD2 proteins were determined from protein saturation experiments by monitoring the total fluorescence polarization of mixtures composed with the fluorescent probe at a fixed concentration and proteins with increasing concentrations up to full saturation. Serial dilutions of testing proteins were mixed with the fluorescent probe to a final volume of 200 μl in the assay buffer (100 mM phosphate buffer, pH=6.5, 0.01% Triton X-100 (Sigma, 282103) being added right before assays). Final fluorescent probe concentration was 1.5 nM for both proteins. Plates were incubated at room temperature for 30 minutes with gentle shaking to assure equilibrium. FP values in millipolarization units (mP) were measured using the Infinite M-1000 plate reader (Tecan U.S., Research Triangle Park, N.C.) in Microfluor 1 96-well, black, round-bottom plates (Thermo Scientific, Waltham, Mass.) at an excitation wavelength of 485 nm and an emission wavelength of 530 nm. Kd values of the fluorescent probe, which were calculated by fitting the sigmoidal dose-dependent FP increases as a function of protein concentrations using Graphpad Prism 6.0 software (Graphpad Software, San Diego, Calif.), are 5.5 and 3.0 nM to BDR4 BD1 and 2, respectively.
Chain of BRD2 BD2 (P25440 344-453 limits assumed): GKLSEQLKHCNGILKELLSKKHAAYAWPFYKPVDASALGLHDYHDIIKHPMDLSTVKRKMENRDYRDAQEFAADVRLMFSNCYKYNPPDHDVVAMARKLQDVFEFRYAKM
(§2) The IC50 and Ki values of compounds were determined in a competitive binding experiment. See US 2014/0256706. Mixtures of 10 μl of the tested compounds in assay buffer with 40% Ethylene Glycol and 190 μl of preincubated protein/probe complex solution in the assay buffer (100 mM potassium phosphate, pH 6.5, 0.01% Triton X-100) were added into assay plates which were incubated at room temperature for 30 minutes with gentle shaking. Final concentrations of proteins were 10 and 6 nM in assays for BRD4 BD1 and BD2, respectively. Final probe concentration is 1.5 nM in both assays. […] FP values were measured as described above. IC50 values were determined by nonlinear regression fitting of the competition curves. Instead of being calculated from IC50 values as described before. […]
(§3) For several representative compounds in Table 5, their binding affinities to BRD2 BD1 and BD2 proteins, and BRD3 BD1 and BD2 proteins were determined using the Competitive Fluorescence-Polarization (FP) Assays described in Example 6, with the data included in Table 8.

In the next series the target is BRD3 BD2 (Homo sapiens, UniProt Q15059). The series is described as follows: Competitive FP binding assay, BRD3 BD2. The note with it: Table 8, read-out: IC50 (nM) in FP assays BRD3 BD2. How it is done:
as §1, §2, §3

The next series has as its system MOLM-13. Briefly: Cell growth inhibition, 4-day proliferation assay, MOLM-13. The class given is cell-based. The note with it: Homo sapiens, MOLM-13, WST-8 assay, Table 7; read-out: Cell growth inhibition (IC50 (nM)) MOLM-13. For orientation: Formazan colour is commonly taken as a measure of viable cells.
A further series has as its target BRD2 BD1 (Homo sapiens, UniProt P25440). Briefly: Competitive FP binding assay, BRD2 BD1. The note with it: Table 8, read-out: IC50 (nM) in FP assays BRD2 BD1. Here is the method: as §1, §2, §3
The nature of series [1]: Plasma exposure after oral gavage in mice, LC-MS/MS. The note with it: mouse, plasma, mice, oral gavage 25 mg/kg; for concentration at 1 h: read-out: Plasma concentration (ng/mL) 1 h; for concentration at 3 h: read-out: Plasma concentration (ng/mL) 3 h; for concentration at 6 h: read-out: Plasma concentration (ng/mL) 6 h. The class given is in vivo. Here is the method: For a number of representative compounds in Table 5, their plasma exposures with oral administration in mice via oral gavage were determined by LC-MS/MS, with the data shown in Table 9.

For another series, the target named is T1, recombinant BRD4 BD2 (Homo sapiens, UniProt O60885).
T1 construct: for recombinant BRD4 BD1 and BRD4 BD2 proteins
The series is described as follows: Competitive fluorescence-polarization (FP) binding assay, BRD4 BD2. The note with it: competitive FP, Table 6; read-out: IC50 as determinined in FP assays BRD4 BD2.

The next series has as its system RS4;11. The series is described as follows: Cell growth inhibition, 4-day proliferation assay, RS4;11. The class given is cell-based. The note with it: Homo sapiens, RS4-11; WST-8 assay, Table 7; read-out: Cell growth inhibition (IC50 (nM)) RS4;11. How it is done: The effect of representative Compounds of the Disclosure on cell viability was determined in a 4-day proliferation assay. Cells were maintained in the appropriate culture medium with 100/0 FBS at 37° C. and an atmosphere of 5% CO2. All the cell lines were used within three months of thawing fresh vials.
In general, cells were seeded in 96-well flat bottom (Corning COSTAR, Corning, N.Y., cat #3595) or white opaque cell culture plates (BD Falcon, cat #353296) at a density of 3,000-10,000 cells/well in 75 μl of culture medium. Compounds were serially diluted in the appropriate medium, and 75 μl of the diluted compounds were added to the appropriate wells of the cell plate. After the addition of compounds, the cells were incubated at 37° C. in an atmosphere of 5% CO2 for 4 days. Cell viability was determined using the CellTiter-Glo® Luminescent Cell Viability Assay Kit (Promega, Madison, Wis.) for leukemia cells and WST (2-(2-methoxy-4-nitrophenyl)-3-(4-nitrophenyl)-5-(2,4-disulfophenyl)-2H-tetrazolium, monosodium salt) Cell Counting-8 Kit (Dojindo Molecular Technologies, Inc., Rockville, Md.) for adherent cells according to the manufacturers' instructions.
For WST assay (adherent cells), WST-8 reagent was added to each well at a final concentration of 10% (v/v), and then the plates were incubated at 37° C. for 1-2 hours for color development. The absorbance was measured at 450 nm using a SPECTRAmax PLUS plate reader (Molecular Devices, Sunnyvale, Calif.). The readings were normalized to the DMSO-treated cells and the half maximal inhibitory concentration (IC50) was calculated by nonlinear regression (four parameters sigmoid fitted with variable slope, least squares fit, and no constraint) analysis using the GraphPad Prism 5 software (GraphPad Software, La Jolla, Calif.).
For CellTiter-Glo assay (suspension cells), 100 μl of CellTiter-Glo® Reagent was added to each well, and then the plates were incubated at room temperature for 10-20 minutes. The luminescent signal was measured using a Tecan Infinite M1000 multimode microplate reader (Tecan, Morrisville, N.C.). The readings were normalized to the DMSO-treated cells and the IC50 was calculated by nonlinear regression (four parameters sigmoid fitted with variable slope, least squares fit, and no constraint) analysis using the GraphPad Prism 5 software. See US 2014/0256706.
For a number of representative compounds in Table 5, their IC50 values in cell growth inhibition activity in the RS4;11 and MOLM-13 human leukemia cell lines and the MDA-MB-231 breast cancer cell line were evaluated using the WST-8 assay described in EXAMPLE 7, with the data shown in Table 7.

The target in a further series is T2, recombinant BRD4 BD1 (Homo sapiens, UniProt O60885).
T2 construct: for recombinant BRD4 BD1 and BRD4 BD2 proteins
Briefly: Competitive fluorescence-polarization (FP) binding assay, BRD4 BD1. The note with it: competitive FP, Table 6; read-out: IC50 as determinined in FP assays BRD4 BD1.

The target in a further series is BRD3 BD1 (Homo sapiens, UniProt Q15059). Briefly: Competitive FP binding assay, BRD3 BD1. The note with it: Table 8, read-out: IC50 (nM) in FP assays BRD3 BD1. How it is done: as §1, §2, §3
Chain of BRD3 BD1 (Q15059 34-140 limits assumed): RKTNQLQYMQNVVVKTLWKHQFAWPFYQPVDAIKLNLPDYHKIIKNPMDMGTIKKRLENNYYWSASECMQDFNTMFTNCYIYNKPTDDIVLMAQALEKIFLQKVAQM
The next series deals with MDA-MB-231. The series is described as follows: Cell growth inhibition, 4-day proliferation assay, MDA-MB-231. The note with it: Homo sapiens, MDA-MB-231; WST-8 assay, Table 7; read-out: Cell growth inhibition (IC50 (nM)) MDA-MB-231. The class given is cell-based. The essentials: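 WST-8 colorimetric read-out (absorbance 450 nm after 1-2 h) after 4-day compound exposure of 3,000-10,000 cells/well at 37 °C; IC50 from variable-slope sigmoid fit of DMSO-normalized signal.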

SMILES strings stand for the structures.

Chain of BRD3 BD2 (Q15059 306-415 limits assumed): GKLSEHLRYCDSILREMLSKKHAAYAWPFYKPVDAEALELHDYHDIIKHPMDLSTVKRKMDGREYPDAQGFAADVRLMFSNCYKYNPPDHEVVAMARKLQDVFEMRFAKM
Chain of BRD2 BD1 (P25440 74-180 limits assumed): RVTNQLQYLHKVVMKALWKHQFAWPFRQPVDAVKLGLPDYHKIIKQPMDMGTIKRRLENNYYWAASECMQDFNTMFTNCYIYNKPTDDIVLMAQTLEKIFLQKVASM

As a reminder, the IC50 is the concentration that gives 50% inhibition. Turning to `Cc1c(C#CC2CCOCC2)sc2c1C(c1ccc(Cl)cc1)=N[C@@H](CC(=O)N1CCC(C)(O)CC1)c1nnc(C)n1-2` [Compound 157, (S)-2-(4-(4-chlorophenyl)-3,9-dimethyl-2-((tetrahydro-2H-pyran-4-yl)ethynyl)-6H-thieno[3,2-f][1,2,4]triazolo[4,3-a][1,4]diazepin-6-yl)-1-(4-hydroxy-4-methylpiperidin-1-yl)ethan-1-one], the concentration for half-maximal inhibition (IC50) is 146 nM on BRD2 BD2; 120 nM at BRD3 BD2; 25.4 nM with MOLM-13; 39.3 nM on BRD2 BD1; 50.3 nM on recombinant BRD4 BD2; 37 nM with RS4;11. Moreover, the values for the 50% inhibitory concentration (IC50) on recombinant BRD4 BD1 and on BRD3 BD1 were 55.2 nM and 85.1 nM, respectively. Further, the concentration at 1 h in series [1] came out at 4630 ng/mL. The concentration at 3 h in series [1] was 3760 ng/mL. Moreover, the concentration at 6 h in [1] turned out to be 1190 ng/mL.

`Cc1nnc(C[C@@H]2N=C(c3ccc(Cl)cc3)c3c(sc(C#CC4CCOCC4)c3C)-n3c(C)nnc32)o1` [Compound 145, (S)-2-((4-(4-chlorophenyl)-3,9-dimethyl-2-((tetrahydro-2H-pyran-4-yl)ethynyl)-6H-thieno[3,2-f][1,2,4]triazolo[4,3-a][1,4]diazepin-6-yl)methyl)-5-methyl-1,3,4-oxadiazole]: the IC50 came to 50.7 nM on BRD2 BD2; 161 nM on BRD3 BD2; 11.3 nM in the series with MOLM-13; 105 nM in the series on MDA-MB-231; 26 nM at BRD2 BD1; 47.5 nM on recombinant BRD4 BD2. For the same molecule, the IC50 in the series on RS4;11 was 13.3 nM; at recombinant BRD4 BD1, 16.3 nM; at BRD3 BD1 it was 38.6 nM. In addition, the concentration at 1 h in series [1] is 6620 ng/mL. Further, the concentration at 3 h in series [1] turned out to be 4880 ng/mL. For the same molecule, the concentration at 6 h in [1] turned out to be 629 ng/mL.

Regarding `Cc1c(C#CC2CCOCC2)sc2c1C(c1ccc(Cl)cc1)=N[C@@H](CC(=O)N1CC(C)(O)C1)c1nnc(C)n1-2` [Compound 158, (S)-2-(4-(4-chlorophenyl)-3,9-dimethyl-2-((tetrahydro-2H-pyran-4-yl)ethynyl)-6H-thieno[3,2-f][1,2,4]triazolo[4,3-a][1,4]diazepin-6-yl)-1-(3-hydroxy-3-methylazetidin-1-yl)ethan-1-one], the half-maximal inhibitory concentration (IC50) on BRD2 BD2 turned out to be 182 nM; at BRD3 BD2, 220 nM; with MOLM-13, 24.5 nM; on BRD2 BD1 it was 40.2 nM; on recombinant BRD4 BD2, 69.1 nM; in the series with RS4;11, 43 nM. The IC50 is 48.3 nM at recombinant BRD4 BD1 and 63.7 nM at BRD3 BD1. Moreover, the concentration at 1 h in series [1] worked out at 3380 ng/mL. Also, the concentration at 3 h in series [1] was 1810 ng/mL. Also, in series [1], the concentration at 6 h is 946 ng/mL.

On to `Cc1c(C#CC2CCOCC2)sc2c1C(c1ccc(Cl)cc1)=N[C@@H](CC(=O)N1CCC(O)CC1)c1nnc(C)n1-2` [Compound 159, (S)-2-(4-(4-chlorophenyl)-3,9-dimethyl-2-((tetrahydro-2H-pyran-4-yl)ethynyl)-6H-thieno[3,2-f][1,2,4]triazolo[4,3-a][1,4]diazepin-6-yl)-1-(4-hydroxypiperidin-1-yl)ethan-1-one], for which the IC50 at BRD2 BD2 came out at 143 nM; at BRD3 BD2 it was 127 nM; with MOLM-13, 35.4 nM; on BRD2 BD1, 34.4 nM; on recombinant BRD4 BD2, 47.6 nM; in the series with RS4;11, 39.5 nM. Besides, the IC50 on recombinant BRD4 BD1 is 36.2 nM; at BRD3 BD1 it was 76.5 nM. For the same molecule, the concentration at 1 h in series [1] worked out at 3460 ng/mL. Further, in series [1], the concentration at 3 h came out at 2120 ng/mL. For the same molecule, the concentration at 6 h in series [1] is 1700 ng/mL.
